Drawing on patent publication US20260070945A1, “MACROCYCLIC IMMUNOMODULATORS” (Bristol-Myers Squibb Company, priority 2022, published 2026), this text covers IC50 for nine molecules.

SMILES strings stand for the structures. *1 amine or outer side, *2 acyl side, *3 side chain or, on linkers, in order; H or OH if unused. Where a SMILES comes first, the peptide text is derived from it. Bridges are numbered along the chain shown (N, C = ends). [ ]: non-standard residue; d: D form. The star is where a group is joined. ξ: configuration not given here. X10 = O=C(O)COc1ccc(C[C@H](CC(=O)C[*:2])C(=O)[*:1])cc1; Phe(3-CF3) = N[C@@H](Cc1cccc(C(F)(F)F)c1)C(=O)O; Phe(4-COOH) = N[C@@H](Cc1ccc(C(=O)O)cc1)C(=O)O; Bip = N[C@@H](Cc1ccc(-c2ccccc2)cc1)C(=O)O; NH(CH2)14COOH = O=C(O)CCCCCCCCCCCCCCN*; Phe(3-F) = N[C@@H](Cc1cccc(F)c1)C(=O)O; Phe(3-Me) = Cc1cccc(C[C@H](N)C(=O)O)c1; Val(3-OH) = CC(C)(O)[C@H](N)C(=O)O; 4Pal = N[C@@H](Cc1ccncc1)C(=O)O; NMeE = CN[C@@H](CCC(=O)O)C(=O)O; Aad = N[C@@H](CCCC(=O)O)C(=O)O; Cha = N[C@@H](CC1CCCCC1)C(=O)O; Thr(3ξ) = CC(O)[C@H](N)C(=O)O; X9 = NC(=O)CCCCCCCCCCCCCCN*; 12Ado = NCCCCCCCCCCCC(=O)O; Carboxymethyl = O=C(O)C*; NMeA = CN[C@@H](C)C(=O)O; Orn = NCCC[C@H](N)C(=O)O; Aun = NCCCCCCCCCCC(=O)O; Dab = NCC[C@H](N)C(=O)O; AEEA = NCCOCCOCC(=O)O

T1 sequence (Q15116 25-288): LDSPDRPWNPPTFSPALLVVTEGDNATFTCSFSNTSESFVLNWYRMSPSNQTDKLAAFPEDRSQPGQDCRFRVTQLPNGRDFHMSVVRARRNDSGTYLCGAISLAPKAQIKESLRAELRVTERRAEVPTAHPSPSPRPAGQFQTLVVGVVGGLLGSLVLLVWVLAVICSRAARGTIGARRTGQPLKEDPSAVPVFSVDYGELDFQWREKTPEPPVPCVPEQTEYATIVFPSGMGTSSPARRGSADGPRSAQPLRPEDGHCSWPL

The first assay has as its target T1, PD-1/PD-L1 interaction (PE-labeled human PD-L1-Ig binding to Jurkat cell line over-expressing human PD-1) (Homo sapiens, UniProt Q15116).
T1 construct: expressed in transfected cells; host or cells: Jurkat
Briefly: Jurkat-PD-1 Cell Binding High-Content Screening Assay (CBA). As to conditions: Jurkat-hPD-1 cells, PE-labeled PD-L1-Ig 20 nM final; read-out: Jurkat HPD1 PDL1 IC50. An outline of the steps:
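Jurkat cells overexpressing human PD-1 (8×10^3/well, DMEM + 10% FCS) preincubated with compound 2 h at 37 °C, then PE-labelled human PD-L1-Ig (20 nM final) for 1 h. Cells fixed in paraformaldehyde with Hoechst 33342; bound PD-L1 quantified by high-content imaging.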
For the molecule `Cc1cccc(C[C@@H]2NC(=O)[C@H](CC(=O)O)NC(=O)[C@H](Cc3ccc(C(=O)O)cc3)NC(=O)[C@H](Cc3ccc(OCC(=O)O)cc3)NC(=O)CSC[C@@H](C(=O)N[C@@H](CCN)C(=O)NCCCCCCCCCCC(=O)O)NC(=O)[C@H](CCCC(=O)O)NC(=O)[C@H](C(C)C)NC(=O)[C@H](CC3CCCCC3)NC(=O)[C@H](CCN)NC(=O)[C@@H](CC(C)C)NC(=O)[C@H](C)N(C)C(=O)[C@H](C(C)C)NC(=O)[C@H](Cc3ccc(-c4ccccc4)cc3)NC(=O)[C@H](C(C)C)NC2=O)c1` [Example 2214] ({CH2CO}-Y(Carboxymethyl)[Phe(4-COOH)]D[Phe(3-Me)]V[Bip]V[NMeA][dL][Dab][Cha]V[Aad]C[Dab][Aun]-OH; thioether N-14), the half-maximal inhibitory concentration (IC50) (usually the concentration that gives 50% inhibition) stood at 16.3 nM.

Regarding `CC(C)C[C@@H]1NC(=O)[C@H](Cc2c[nH]c3ccccc23)NC(=O)[C@H](CC(=O)O)NC(=O)[C@H](Cc2ccncc2)NC(=O)[C@H](Cc2ccc(OCC(=O)O)cc2)NC(=O)CSC[C@@H](C(=O)N[C@@H](CCCN)C(=O)NCCCCCCCCCCC(=O)O)NC(=O)[C@H]([C@@H](C)O)NC(=O)[C@H](C(C)C)NC(=O)[C@H](CC2CCCCC2)NC(=O)[C@H](CCN)NC(=O)[C@@H](CC(C)C)NC(=O)[C@H](C)N(C)C(=O)[C@H](C(C)C)NC(=O)[C@H](Cc2ccc(-c3ccccc3)cc2)NC1=O` [Example 1331] ({CH2CO}-Y(Carboxymethyl)[4Pal]DWL[Bip]V[NMeA][dL][Dab][Cha]VTC[Orn][Aun]-OH; thioether N-14), the IC50 turned out to be 12.3 nM.

Consider `Cc1cccc(C[C@@H]2NC(=O)[C@H](CC(=O)O)NC(=O)[C@H](Cc3ccc(OCC(=O)O)cc3)NC(=O)[C@H]([C@@H](C)O)NC(=O)CSC[C@@H](C(=O)N[C@@H](CCN)C(=O)N[C@@H](Cc3cn(CC(=O)NCCCNC(=O)c4cc(F)c(F)c(F)c4)nn3)C(=O)NCCCCCCCCCCC(=O)O)NC(=O)[C@H]([C@@H](C)O)NC(=O)[C@H](C(C)C)NC(=O)[C@H](CC3CCCCC3)NC(=O)[C@H](CCN)NC(=O)[C@@H](CC(C)C)NC(=O)[C@H](C)N(C)C(=O)[C@H](Cc3ccc(OCC(=O)O)cc3)NC(=O)[C@H](Cc3ccc(-c4ccccc4)cc3)NC(=O)[C@H](Cc3ccc(C(=O)O)cc3)NC2=O)c1` [Example 1241], for which the IC50 was 23.3 nM.

Take `CC(C)C[C@@H]1NC(=O)[C@H](Cc2c[nH]c3ccccc23)NC(=O)[C@H](CC(=O)O)NC(=O)[C@H](Cc2ccncc2)NC(=O)[C@H](Cc2ccc(OCC(=O)O)cc2)NC(=O)CSC[C@@H](C(=O)N[C@@H](CCCN)C(=O)NCCOCCOCC(=O)NCCCCCCCCCCCC(=O)O)NC(=O)[C@H](CO)NC(=O)[C@H](C(C)C)NC(=O)[C@H](CC2CCCCC2)NC(=O)[C@H](CCN)NC(=O)[C@@H](CC(C)C)NC(=O)[C@H](C)N(C)C(=O)[C@H](C(C)C)NC(=O)[C@H](Cc2ccc(-c3ccccc3)cc2)NC1=O` [Example 2141] ({CH2CO}-Y(Carboxymethyl)[4Pal]DWL[Bip]V[NMeA][dL][Dab][Cha]VSC[Orn][AEEA][12Ado]-OH; thioether N-14): the IC50 was determined as 13.2 nM.

As to `Cc1cccc(C[C@@H]2NC(=O)[C@H](CC(=O)O)NC(=O)[C@H](Cc3ccc(OCC(=O)O)cc3)NC(=O)[C@H](C(C)O)NC(=O)CSC[C@@H](C(=O)N(C)[C@@H](CCC(=O)O)C(=O)NCCCCCCCCCCC(=O)O)NC(=O)[C@H](CO)NC(=O)[C@H](C(C)C)NC(=O)[C@H](CC3CCCCC3)NC(=O)[C@H](CCN)NC(=O)[C@@H](CC(C)C)NC(=O)[C@H](C)N(C)C(=O)[C@H](C(C)C)NC(=O)[C@H](Cc3ccc(-c4ccccc4)cc3)NC(=O)[C@H](C(C)C)NC2=O)c1` (stereo partly drawn) [Example 2299] ({CH2CO}-[Thr(3ξ)]Y(Carboxymethyl)D[Phe(3-Me)]V[Bip]V[NMeA][dL][Dab][Cha]VSC[NMeE][Aun]-OH; thioether N-14), the half-maximal inhibitory concentration (IC50) is 130 nM.

On to `Cc1cccc(C[C@@H]2NC(=O)[C@H](CC(=O)O)NC(=O)[C@H](Cc3ccc(C(=O)O)cc3)NC(=O)[C@H](Cc3ccncc3)NC(=O)CSC[C@@H](C(=O)N[C@@H](CCN)C(=O)NCCCCCCCCCCC(=O)O)NC(=O)[C@H](CO)NC(=O)[C@H](C(C)(C)O)NC(=O)[C@H](CC3CCCCC3)NC(=O)[C@H](CCN)NC(=O)[C@@H](CC(C)C)NC(=O)[C@H](C)N(C)C(=O)[C@H](Cc3ccc(OCC(=O)O)cc3)NC(=O)[C@H](Cc3ccc(-c4ccccc4)cc3)NC(=O)[C@H](Cc3cccc(F)c3)NC2=O)c1` [Example 1309] ({CH2CO}-[4Pal][Phe(4-COOH)]D[Phe(3-Me)][Phe(3-F)][Bip]Y(Carboxymethyl)[NMeA][dL][Dab][Cha][Val(3-OH)]SC[Dab][Aun]-OH; thioether N-14), for which the half-inhibitory concentration (IC50) came to 12.7 nM.

As for `COc1ccc(C[C@@H]2NC(=O)CSC[C@@H](C(=O)N[C@@H](CCN)C(=O)NCCCCCCCCCCC(=O)O)NC(=O)[C@H](CO)NC(=O)[C@H](C(C)(C)O)NC(=O)[C@H](CC3CCCCC3)NC(=O)[C@H](CCN)NC(=O)[C@@H](CC(C)C)NC(=O)[C@H](C)N(C)C(=O)[C@H](Cc3ccc(OCC(=O)O)cc3)NC(=O)[C@H](Cc3ccc(-c4ccccc4)cc3)NC(=O)[C@H](Cc3ccc(OCC(=O)O)cc3)NC(=O)[C@H](Cc3cccc(C)c3)NC(=O)[C@H](CC(=O)O)NC(=O)[C@H](Cc3ccc(OCC(=O)O)cc3)NC2=O)cc1` [Example 1286] ({CH2CO}-Y(Me)Y(Carboxymethyl)D[Phe(3-Me)]Y(Carboxymethyl)[Bip]Y(Carboxymethyl)[NMeA][dL][Dab][Cha][Val(3-OH)]SC[Dab][Aun]-OH; thioether N-14), the half-inhibitory concentration (IC50) is 19.2 nM.

Staying with this assay, now noted: PE-labeled PD-L1-Ig 20 nM final, Jurkat-hPD-1 cells; read-out: Jurkat HPD1 PDL1 IC50.
Consider `CC(C)C[C@H]1NC(=O)[C@H](C)N(C)C(=O)[C@H](Cc2ccc(C(=O)O)cc2)NC(=O)[C@H](Cc2ccc(-c3ccccc3)cc2)NC(=O)[C@H](Cc2ccc(C(=O)O)cc2)NC(=O)[C@H](Cc2cccc(C(F)(F)F)c2)NC(=O)[C@H](CC(=O)O)NC(=O)[C@H](Cc2ccc(C(=O)O)cc2)NC(=O)[C@H](C(C)O)NC(=O)CSC[C@@H](C(=O)N[C@@H](CCN)C(=O)NCCOCCOCC(=O)NCCOCCOCC(=O)NCCCCCCCCCCCCCCC(=O)O)NC(=O)[C@H](CC(=O)O)NC(=O)[C@H](C(C)C)NC(=O)[C@H](CC2CCCCC2)NC(=O)[C@H](CCN)NC1=O` (stereo partly drawn) [Example 2616] ({CH2CO}-[Thr(3ξ)][Phe(4-COOH)]D[Phe(3-CF3)][Phe(4-COOH)][Bip][Phe(4-COOH)][NMeA][dL][Dab][Cha]VDC[Dab][AEEA][AEEA]-{NH(CH2)14COOH}; thioether N-14), for which the IC50 was 427 nM.

For `CC(=O)NCCCC[C@@H]1NC(=O)[C@H](C(C)(C)O)NC(=O)[C@H](CC2CCCCC2)NC(=O)[C@H](CCN)NC(=O)[C@@H](CC(C)C)NC(=O)[C@H](C)N(C)C(=O)[C@H](CCC(N)=O)NC(=O)[C@H](Cc2ccc(-c3ccccc3)cc2)NC(=O)[C@H](Cc2ccc(C(=O)O)cc2)NC(=O)[C@H](Cc2cccc(C(F)(F)F)c2)NC(=O)[C@H](CC(=O)O)NC(=O)[C@H](Cc2ccc(OCC(=O)O)cc2)NC(=O)[C@H](Cc2ccc(OCC(=O)O)cc2)CC(=O)CSC[C@@H](C(=O)N[C@@H](CCN)C(=O)NCCOCCOCC(=O)N[C@@H](CC(=O)NCCCCCCCCCCCCCCC(N)=O)C(=O)O)NC1=O` [Example 2637] (Y(Carboxymethyl)D[Phe(3-CF3)][Phe(4-COOH)][Bip]Q[NMeA][dL][Dab][Cha][Val(3-OH)]K(Ac)C[Dab][AEEA]D(X9)-OH; linker N-13 via X10), the IC50 stood at 24.2 nM.
